From US20200337992A1, “Auricular Cleaning Composition” (priority 2015, published 2020)

Assay: In vitro cerumenolytic effect test on synthetic cerumen
Settings: for % of cerumen removed: Table 3, total after four successive applications; for cerumenolytic activity / cerumenolytic effect: cf. FIG. 1, in vitro test
Procedure: Thus, the selected formula of the synthetic cerumen which makes it possible to evaluate the in vitro cerumenolytic effect of agents is the following: [table] In order to select a new combination of cerumenolytic agents, the cerumenolytic effect test was employed using the cerumen described in the table above. […] The distribution is carried out in such a way that the cerumen is present only in the bottom of the tube and not on the edges or the opening, which could distort the results. The tubes are then left to stand for the amount of time required for the cerumen to solidify. The distribution is carried out the day before the in vitro test in order to leave the cerumen with a minimum of 24 h to cool and solidify. The dimensions of the test tube, the temperature at which the test was carried out and the amount of synthetic cerumen were chosen to represent as faithfully as possible, in vitro, the dog ear canal. According to these parameters, the procedure followed for measuring the in vitro effectiveness of an agent or of a combination of agents having a cerumenolytic effect is the following: =>The test tube containing only the cerumen is weighed before the test. […] =>The test tube is then attached to a stirring turbine and immersed in a bath of water heated to 35° C. (the water height is sufficient for the content of the tube (cerumen+test product) to be immersed. =>The stirring is maintained for 20 minutes at 50 rpm. […] This step makes it possible to remove the product and the cerumen debris detached by the cerumenolytic agent. =>At the end of the time elapsed, the tube is weighed to evaluate the amount of cerumen removed. =>This process is carried out four times in a row, on each same tube, in order to simulate and evaluate the application number required to remove the cerumen plug present in the dog ear canal. Each time, the cerumen remaining at the bottom of the tube is dried and then weighed. […] As previously indicated, in order to check the effectiveness of an agent, the test tubes are weighed before the test is carried out and after the phase of leaving to stand upside down for 1 h. The removal of the cerumen is, according to this process, evaluated as for this example: =>Weight of the tube A before test 1: 3.493 g and weight of the tube A after test 1: 3.449 g =>Percentage of cerumen removed: […] The percentages are thus calculated for each test: from 1 to 4. The total percentage of cerumen removed is obtained after having repeated the operation successively four times for one and the same tube.

[1] = 500 mg synthetic cerumen, 2 ml test product, 35° C., 20 minutes at 50 rpm

Compound | % of cerumen removed [1] [%] | % cerumen removed (after test 4) (Table 4, 500 mg synthetic cerumen, 2 ml test product, 35° C., 20 minutes at 50 rpm, after test 4) [%] | cerumenolytic activity / cerumenolytic effect
CCOCCOCCO [100% Transcutol ®, 2-(2-ethoxyethoxy)ethanol] | 100 | 100.0 | ~100%
CC(C)O [100% Isopropyl alcohol, isopropyl alcohol] | 66 |  | about 60%
